Legend:
Type in all cases: cell-based
[1] = test system: four cancer cell lines (A-549, MCF-7, Panc-1, HT-29); assay: Antiproliferative assay, average over four cancer cell lines; details: Homo sapiens; average of the four cancer cell lines; read-out: Average IC50 (GI50)
From the text: Table 2 presents the four cancer cell lines’ median inhibitory concentration (IC50) and GI50 (average IC50) values.
The IC50 values were derived from dose-response tests. The reported data are derived from at least two independent studies, each comprising three replicates per concentration. See Supplementary Material A1 for more details.

[2] = test system: NCI-H322M; assay: NCI-60 single-dose screen; details: Homo sapiens, single dose 10 µM, '-' = no inhibition, read-out: % Growth Inhibition
Method in brief: (§1)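 NCI DTP single-dose screen; 10 μM compound; 60-line panel, nine cancer types.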

[3] = test system: NCI-H522; assay: NCI-60 single-dose screen; details: Homo sapiens, single dose 10 µM, '-' = no inhibition, read-out: % Growth Inhibition
Method in brief: as §1

[4] = test system: SR; assay: NCI-60 single-dose screen; details: Homo sapiens, single dose 10 µM, '-' = no inhibition, read-out: % Growth Inhibition
Method in brief: as §1

[5] = test system: DU-145; assay: NCI-60 single-dose screen; details: Homo sapiens, single dose 10 µM, '-' = no inhibition, read-out: % Growth Inhibition
Method in brief: as §1

[6] = test system: BT-549; assay: NCI-60 single-dose screen; details: Homo sapiens, single dose 10 µM, '-' = no inhibition, read-out: % Growth Inhibition
Method in brief: as §1

[7] = test system: A549/ATCC; assay: NCI-60 single-dose screen; details: Homo sapiens, single dose 10 µM, '-' = no inhibition, read-out: % Growth Inhibition
Method in brief: as §1

[8] = test system: OVCAR-8; assay: NCI-60 single-dose screen; details: Homo sapiens, single dose 10 µM, '-' = no inhibition, read-out: % Growth Inhibition
Method in brief: as §1

[9] = test system: UACC-62; assay: NCI-60 single-dose screen; details: Homo sapiens, single dose 10 µM, '-' = no inhibition, read-out: % Growth Inhibition
Method in brief: as §1

[10] = test system: MDA-MB231/ATCC; assay: NCI-60 single-dose screen; details: Homo sapiens, MDA-MB-231, single dose 10 µM, '-' = no inhibition, read-out: % Growth Inhibition
Method in brief: as §1

[11] = test system: K-562; assay: NCI-60 single-dose screen; details: Homo sapiens, K562, single dose 10 µM, '-' = no inhibition, read-out: % Growth Inhibition
Method in brief: as §1

[12] = test system: NCI-H23; assay: NCI-60 single-dose screen; details: Homo sapiens, single dose 10 µM, '-' = no inhibition, read-out: % Growth Inhibition
Method in brief: as §1

[13] = test system: SK-MEL-5; assay: NCI-60 single-dose screen; details: Homo sapiens, single dose 10 µM, '-' = no inhibition, read-out: % Growth Inhibition
Method in brief: as §1

[14] = test system: SNB-19; assay: NCI-60 single-dose screen; details: Homo sapiens, single dose 10 µM, '-' = no inhibition, read-out: % Growth Inhibition
Method in brief: as §1

[15] = test system: OVCAR-3; assay: NCI-60 single-dose screen; details: Homo sapiens, single dose 10 µM, '-' = no inhibition, read-out: % Growth Inhibition
Method in brief: as §1

[16] = test system: SF-268; assay: NCI-60 single-dose screen; details: Homo sapiens, single dose 10 µM, '-' = no inhibition, read-out: % Growth Inhibition
Method in brief: as §1

[17] = test system: SN12C; assay: NCI-60 single-dose screen; details: Homo sapiens, single dose 10 µM, '-' = no inhibition, read-out: % Growth Inhibition
Method in brief: as §1

[18] = test system: HOP-92; assay: NCI-60 single-dose screen; details: Homo sapiens, single dose 10 µM, '-' = no inhibition, read-out: % Growth Inhibition
Method in brief: as §1

[19] = test system: OVCAR-4; assay: NCI-60 single-dose screen; details: Homo sapiens, single dose 10 µM, '-' = no inhibition, read-out: % Growth Inhibition
Method in brief: as §1

[20] = test system: SK-MEL-28; assay: NCI-60 single-dose screen; details: Homo sapiens, single dose 10 µM, '-' = no inhibition, read-out: % Growth Inhibition
Method in brief: as §1

[21] = test system: HCC-2998; assay: NCI-60 single-dose screen; details: Homo sapiens, single dose 10 µM, '-' = no inhibition, read-out: % Growth Inhibition
Method in brief: as §1

[22] = test system: ACHN 1; assay: NCI-60 single-dose screen; details: Homo sapiens, single dose 10 µM, '-' = no inhibition, read-out: % Growth Inhibition
Method in brief: as §1

[23] = test system: CAKI-1; assay: NCI-60 single-dose screen; details: Homo sapiens, single dose 10 µM, '-' = no inhibition, read-out: % Growth Inhibition
Method in brief: as §1

[24] = test system: NCI/ADR-RES; assay: NCI-60 single-dose screen; details: Homo sapiens, single dose 10 µM, '-' = no inhibition, read-out: % Growth Inhibition
Method in brief: as §1

[25] = test system: RPMI-8226; assay: NCI-60 single-dose screen; details: Homo sapiens, single dose 10 µM, '-' = no inhibition, read-out: % Growth Inhibition
Method in brief: as §1

[26] = test system: RXF 393; assay: NCI-60 single-dose screen; details: Homo sapiens, single dose 10 µM, '-' = no inhibition, read-out: % Growth Inhibition
Method in brief: as §1

[27] = test system: UO-31; assay: NCI-60 single-dose screen; details: Homo sapiens, single dose 10 µM, '-' = no inhibition, read-out: % Growth Inhibition
Method in brief: as §1

[28] = test system: PC-3; assay: NCI-60 single-dose screen; details: Homo sapiens, single dose 10 µM, '-' = no inhibition, read-out: % Growth Inhibition
Method in brief: as §1

[29] = test system: MDA-MB-468; assay: NCI-60 single-dose screen; details: Homo sapiens, single dose 10 µM, '-' = no inhibition, read-out: % Growth Inhibition
Method in brief: as §1

[30] = test system: HCT-116; assay: NCI-60 single-dose screen; details: Homo sapiens, single dose 10 µM, '-' = no inhibition, read-out: % Growth Inhibition
Method in brief: as §1

[31] = test system: OVCAR-5; assay: NCI-60 single-dose screen; details: Homo sapiens, single dose 10 µM, '-' = no inhibition, read-out: % Growth Inhibition
Method in brief: as §1

[32] = test system: U251; assay: NCI-60 single-dose screen; details: Homo sapiens, U-251, single dose 10 µM, '-' = no inhibition, read-out: % Growth Inhibition
Method in brief: as §1

[33] = test system: SF-539; assay: NCI-60 single-dose screen; details: Homo sapiens, single dose 10 µM, '-' = no inhibition, read-out: % Growth Inhibition
Method in brief: as §1

[34] = test system: HS 578T; assay: NCI-60 single-dose screen; details: Homo sapiens, single dose 10 µM, '-' = no inhibition, read-out: % Growth Inhibition
Method in brief: as §1

[35] = test system: TK-10; assay: NCI-60 single-dose screen; details: Homo sapiens, single dose 10 µM, '-' = no inhibition, read-out: % Growth Inhibition
Method in brief: as §1

[36] = test system: SK-OV-3; assay: NCI-60 single-dose screen; details: Homo sapiens, single dose 10 µM, '-' = no inhibition, read-out: % Growth Inhibition
Method in brief: as §1

[37] = test system: HL-60(TB); assay: NCI-60 single-dose screen; details: Homo sapiens, single dose 10 µM, '-' = no inhibition, read-out: % Growth Inhibition
[38] = test system: IGROV1; assay: NCI-60 single-dose screen; details: Homo sapiens, IGROV-1, single dose 10 µM, '-' = no inhibition, read-out: % Growth Inhibition
Method in brief: as §1

[39] = test system: NCI-H460; assay: NCI-60 single-dose screen; details: Homo sapiens, single dose 10 µM, '-' = no inhibition, read-out: % Growth Inhibition
Method in brief: as §1

[40] = test system: UACC-257; assay: NCI-60 single-dose screen; details: Homo sapiens, single dose 10 µM, '-' = no inhibition, read-out: % Growth Inhibition
Method in brief: as §1

[41] = test system: 786-0; assay: NCI-60 single-dose screen; details: Homo sapiens, single dose 10 µM, '-' = no inhibition, read-out: % Growth Inhibition
Method in brief: as §1

[42] = test system: SK-MEL-2; assay: NCI-60 single-dose screen; details: Homo sapiens, single dose 10 µM, '-' = no inhibition, read-out: % Growth Inhibition
Method in brief: as §1

[43] = test system: COLO 205; assay: NCI-60 single-dose screen; details: Homo sapiens, single dose 10 µM, '-' = no inhibition, read-out: % Growth Inhibition
Method in brief: as §1

[44] = test system: HT29; assay: NCI-60 single-dose screen; details: Homo sapiens, HT-29, single dose 10 µM, '-' = no inhibition, read-out: % Growth Inhibition
Method in brief: as §1

C=CCSc1nc(-c2ccc(Cl)cc2)cc(-c2ccc(OC)c(OC)c2)n1 [Compound 27, 2-(Allylthio)-4-(4-chlorophenyl)-6-(3,4-dimethoxyphenyl)pyrimidine]
IC50 [1]: 0.059 µM | inhibition at 10 µM [2]: < 0% | inhibition at 10 µM [3]: 16.4% | inhibition at 10 µM [4]: 30.3% | inhibition at 10 µM [5]: 2.02% | inhibition at 10 µM [6]: 3.91% | inhibition at 10 µM [7]: 12.3% | inhibition at 10 µM [8]: 7.89% | inhibition at 10 µM [9]: 26% | inhibition at 10 µM [10]: 7.53% | inhibition at 10 µM [11]: 42% | inhibition at 10 µM [12]: 7.78% | inhibition at 10 µM [13]: 12.2% | inhibition at 10 µM [14]: 8.39% | inhibition at 10 µM [15]: < 0% | inhibition at 10 µM [16]: < 0% | inhibition at 10 µM [17]: 14.3% | inhibition at 10 µM [18]: 10.6% | inhibition at 10 µM [19]: 10.3% | inhibition at 10 µM [20]: < 0% | inhibition at 10 µM [21]: < 0% | inhibition at 10 µM [22]: 6.5% | inhibition at 10 µM [23]: 13.1% | inhibition at 10 µM [24]: 21.8% | inhibition at 10 µM [25]: 14.3% | inhibition at 10 µM [26]: 3.07% | inhibition at 10 µM [27]: 22.9% | inhibition at 10 µM [28]: 15.7% | inhibition at 10 µM [29]: 23.7% | inhibition at 10 µM [30]: 21.8% | inhibition at 10 µM [31]: < 0% | inhibition at 10 µM [32]: < 0% | inhibition at 10 µM [33]: < 0% | inhibition at 10 µM [34]: < 0% | inhibition at 10 µM [35]: < 0% | inhibition at 10 µM [36]: < 0% | inhibition at 10 µM [37]: 29.2% | inhibition at 10 µM [38]: < 0% | inhibition at 10 µM [39]: 6.7% | inhibition at 10 µM [40]: < 0% | inhibition at 10 µM [41]: 2.53% | inhibition at 10 µM [42]: 0.52% | inhibition at 10 µM [43]: < 0% | inhibition at 10 µM [44]: 22.6%

Reference: paper PMC11576293, “New series of 4,6-diaryl pyrimidines: facile synthesis and antiproliferative activity as dual EGFR/VEGFR-2 inhibitors” (Frontiers in Chemistry, 2024)
